Test results as given in patent US20230058623A1, “NOVEL HETEROARYL-TRIAZOLE COMPOUNDS AS PESTICIDES” (Bayer Aktiengesellschaft, priority 2019, published 2023).

What was measured:
Assay type in all cases: in vivo
[1] = tested on: adult engorged female ticks (Rhipicephalus microplus); test: Rhipicephalus (Boophilus) microplus injection test; details: 168 h, application rate 4 μg/tick, egg deposition after 7 days, read-out: activity (efficacy: infertile eggs)
Procedure: Rhipicephalus (Boophilus) microplus—Injection Test
Solvent: dimethyl sulfoxide
To produce a suitable preparation of active compound, 10 mg of active compound are dissolved in 0.5 mL solvent, and the concentrate is diluted with solvent to the desired concentration.
Five adult engorged female ticks (Rhipicephalus microplus) are injected with 1 μL compound solution into the abdomen. The ticks are transferred into replica plates and incubated in a climate chamber.
After 7 days egg deposition of fertile eggs is monitored. Eggs where fertility is not visible are stored in a climate chamber till hatching after about 42 days. An efficacy of 100% means all eggs are infertile; 0% means all eggs are fertile.

[2] = tested on: Rhipicephalus (Boophilus) microplus larvae (strain Parkhurst, resistant against synthetic pyrethroids); test: Rhipicephalus (Boophilus) microplus in-vitro contact test, larval cattle tick; details: after 48 hours, read-out: activity (efficacy: larvae dead or moribund); for pest or weed control at 1 µg/cm2, 100 g/ha: application rate 1 μg/cm^2 (=100 g/ha); for pest or weed control at 5 µg/cm2, 500 g/ha: application rate 5 μg/cm^2 (=500 g/ha)
Procedure: Rhipicephalus (Boophilus) microplus—In-Vitro Contact Tests Larval Cattle Tick (Strain Parkhurst, Resistant Against Synthetic Pyrethroids)
(§1) 9 mg compound is solved in 1 ml acetone and diluted with acetone to the desired concentration. 250 μL of the test solution is filled in 25 mL glass test tubes and homogeneously distributed on the inner walls by rotation and tilting on a shaking device (2 h at 30 rpm). With a compound concentration of 900 ppm, an inner surface of 44.7 cm^2 and a homogeneous distribution, a dose of 5 μg/cm^2 is achieved.
After the solvent has evaporated, each test tube is filled with 20-50 cattle tick larvae (Rhipicephalus microplus), closed with a perforated lid and incubated in a horizontal position at 85% relative humidity and 27° C. in an incubator. After 48 hours efficacy is determined. The larvae are patted on the ground of the tubes and negative geotactic behavior is recorded.
An efficacy of 100% means all larvae are dead or moribund; 0% means no larvae are dead or moribund.

[3] = tested on: adult brown dog ticks (Rhipicephalus sanguineus); test: Rhipicephalus sanguineus in-vitro contact test, adult brown dog ticks; details: application rate 5 μg/cm^2 (=500 g/ha), after 48 hours, read-out: activity (efficacy: ticks dead or moribund)
Procedure: Rhipicephalus sanguineus—In-Vitro Contact Tests with Adult Brown Dog Ticks
as §1, with “mL” for “ml”
(§2) After the solvent has evaporated, each test tube is filled with 5-10 adult brown dog ticks (Rhipicephalus sanguineus), closed with a perforated lid and incubated in a lying position at room temperature and relative humidity. After 48 hours efficacy is determined. The ticks are patted on the ground of the tubes and are incubated on a heating plate at 45-50° C. for at most 5 minutes. Immotile or uncoordinated moving ticks, which are not able to escape the heat by climbing upwards, are marked as dead or moribund.
An efficacy of 100% means all ticks are dead or moribund; 0% means no ticks are dead or moribund.

[4] = tested on: larvae of the banded cucumber beetle (Diabrotica balteata); test: Diabrotica balteata spray test; details: 168 h, application rate 100 g/ha (=32 μg/well), after 7 days, wheat seeds, read-out: activity (efficacy: seedlings grown)
Procedure: Diabrotica balteata—Spray Test
(§3) To produce a suitable preparation of active compound, 1 part by weight of active compound is mixed with the stated amount of solvent, and the concentrate is diluted with water, containing an emulsifier concentration of 1000 ppm, to the desired concentration. Further test concentrations are prepared by dilution with emulsifier containing water.
Soaked wheat seeds (Triticum aestivum) are placed in a multiple well plate filled with agar and some water and are incubated for 1 day to germinate (5 seeds per well). The germinated wheat seeds are sprayed with a test solution containing the desired concentration of the active ingredient. Afterwards each unit is infected with 10-20 larvae of the banded cucumber beetle (Diabrotica balteata).
After 7 days efficacy in % is determined. 100% means all the seedlings have grown up like in the untreated, uninfected control; 0% means none of the seedlings have grown.

[5] = tested on: green peach aphid (Myzus persicae); test: Myzus persicae oral test; details: 120 h, read-out: activity (mortality)
Procedure: Solvent: 100 parts by weight acetone
To produce a suitable preparation of active compound, 1 part by weight of active compound is mixed with the stated amount of solvent, and the concentrate is diluted with water to the desired concentration.
50 μL compound solution is filled in microtiter plates and 150 μL IPL41 insect medium (33%+15% sugar) is added to obtain a total volume of 200 μL per well. Afterwards the plates are sealed with parafilm through which a mixed population of the green peach aphid (Myzus persicae) can suck on the compound preparation.
(§4) After 5 days mortality in % is determined. 100% means all aphids have been killed and 0% means none of the aphids have been killed.

[6] = tested on: fall armyworm larvae (Spodoptera frugiperda); test: Spodoptera frugiperda spray test; details: 168 h, application rate 100 g/ha, after 7 days, maize leaf sections
Procedure: Spodoptera frugiperda—Spray Test
as §3, with “solvents” for “solvent,”, “and” for “and the concentrate”
Maize (Zea mays) leaf sections are sprayed with a preparation of the active ingredient of the desired concentration. Once dry, the leaf sections are infested with fall armyworm larvae (Spodoptera frugiperda).
After 7 days mortality in % is determined. 100% means all caterpillars have been killed and 0% means none of the caterpillars have been killed.

[7] = tested on: larvae of the southern green stink bug (Nezara viridula); test: Nezara viridula spray test; details: 96 h, after 4 days, barley plants; for mortality at 500 g/ha: application rate 500 g/ha, read-out: activity (mortality); for mortality at 100 g/ha: application rate 100 g/ha
Procedure: Nezara viridula—Spray Test
as §3
Barley plants (Hordeum vulgare) are sprayed with a test solution containing the desired concentration of the active ingredient and are infested with larvae of the southern green stink bug (Nezara viridula).
After 4 days mortality in % is determined. 100% means all the stink bugs have been killed; 0% means none of the stink bugs have been killed.

[8] = tested on: green peach aphid (Myzus persicae); test: Myzus persicae spray test; details: foliar, 120 h, application rate 100 g/ha, after 5 days, Chinese cabbage leaf disks, read-out: activity (mortality)
Procedure: Myzus persicae—Spray Test
as §3, with “solvents” for “solvent,”, “and” for “and the concentrate”
Chinese cabbage (Brassica pekinensis) leaf disks infected with all instars of the green peach aphid (Myzus persicae), are sprayed with a preparation of the active ingredient of the desired concentration.
as §4

[9] = tested on: adult cat fleas (Ctenocephalides felis); test: Ctenocephalides felis in-vitro contact test, adult cat flea; details: application rate 5 μg/cm^2 (=500 g/ha), after 48 hours, read-out: activity (efficacy: fleas dead or moribund)
Procedure: Ctenocephalides felis—In-Vitro Contact Tests Adult Cat Flea
as §1, with “mL” for “ml”
as §2, with “cat fleas (Ctenocephalides felis),” for “brown dog ticks (Rhipicephalus sanguineus),”, “fleas” for “ticks”, “fleas,” for “ticks,”
An efficacy of 100% means all fleas are dead or moribund; 0% means no fleas are dead or moribund.

SMILES | pest or weed control at 0.004 mg [1] | pest or weed control at 1 µg/cm2, 100 g/ha [2] | pest or weed control at 5 µg/cm2, 500 g/ha [2] | pest or weed control at 5 µg/cm2, 500 g/ha [3] | pest or weed control at 32 µg/disc, 100 g/ha [4] | mortality at 4 ppm [5] | mortality at 100 g/ha [6] | mortality at 500 g/ha [7] | mortality at 100 g/ha [7] | mortality at 100 g/ha [8] | pest or weed control at 5 µg/cm2 [9]
Cc1nc([C@H](C)NC(=O)c2cc(C(F)(F)F)cc(C(F)(F)F)c2)n(-c2ncc(C(=O)N3C[C@@H](C)O[C@H](C)C3)s2)n1 [Example I-106] | 100% | 100% | 100% | 100% | 100% | 100% | 100% | – | – | – | –
CCc1nc([C@H](C)NC(=O)c2cc(Cl)cc(S(=O)(=O)C3CC3)c2)n(-c2ccc(C(=O)N3C[C@@H](C)O[C@@H](C)C3)cn2)n1 [Example I-133] | – | – | – | – | – | – | 100% | 100% | – | – | –
C[C@H](NC(=O)c1cc(C(F)(F)F)cc(C(F)(F)F)c1)c1ncnn1-c1ccc(C(=O)N2CCNC(=O)C2)cn1 [Example I-65] | – | – | – | – | – | 100% | – | – | 90% | – | –
C[C@H](NC(=O)c1cc(C(F)(F)F)cc(C(F)(F)F)c1)c1ncnn1-c1ccc(C(=O)N2CCC2)cn1 [Example I-10] | 100% | 100% | 100% | 100% | – | 100% | 100% | – | – | 90% | 100%
C[C@H](NC(=O)c1cc(C(F)(F)F)cc(C(F)(F)F)c1)c1ncnn1-c1ccc(C(=O)N(C)C2CCN(C)CC2)cn1 [Example I-62] | – | – | – | – | 80% | – | – | 100% | – | – | –
CC1CCN(C(=O)c2ccc(-n3ncnc3[C@H](C)NC(=O)c3cc(Cl)cc(C(F)(F)F)c3)nc2)CC1 [Example I-38] | 100% | – | – | 80% | 100% | – | – | – | – | – | –
C[C@@H]1CN(C(=O)c2cnc(-n3ncnc3[C@H](C)NC(=O)c3cc(C(F)(F)F)cc(C(F)(F)F)c3)cn2)C[C@H](C)O1 [Example I-143] | – | – | – | – | 100% | – | 100% | 100% | – | 90% | –
C[C@H](NC(=O)c1cc(Cl)cc(S(C)(=O)=O)c1)c1ncnn1-c1ccc(C(=O)N2CCSCC2)cn1 [Example I-120] | – | – | – | – | 80% | 100% | – | – | 90% | – | –
C[C@@H]1CN(C(=O)c2ccc(-n3ncnc3[C@H](C)NC(=O)c3cc(Cl)cc(S(C)(=O)=O)c3)nc2)C[C@@H](C)O1 [Example I-121] | – | – | – | – | – | 100% | – | 100% | 90% | – | –
C[C@@H]1CN(C(=O)c2cnc(-n3ncnc3[C@H](C)NC(=O)c3cc(OC(F)(F)F)cc(C4CC4)c3)cn2)C[C@H](C)O1 [Example I-141] | – | – | – | – | – | – | 100% | 100% | 90% | 90% | –
C[C@H](NC(=O)c1cc(Cl)cc(S(=O)(=O)C2CC2)c1)c1nc(C2CC2)nn1-c1ccc(C(=O)N2CCOCC2)cn1 [Example I-90] | – | – | – | – | – | – | 100% | 100% | – | – | –
CCc1nc([C@H](C)NC(=O)c2cc(Br)cc(OC(F)(F)F)c2)n(-c2ccc(C(=O)N3C[C@@H](C)O[C@@H](C)C3)cn2)n1 [Example I-135] | – | 100% | 100% | 100% | 100% | – | 100% | 100% | – | – | 100%
C[C@H](NC(=O)c1cc(C(F)(F)F)cc(C(F)(F)F)c1)c1ncnn1-c1ccc(C(=O)N2CCC(O)CC2)cn1 [Example I-6] | 100% | 90% | – | 80% | – | 100% | – | – | – | – | –
C[C@H](NC(=O)c1cc(C(F)(F)F)cc(C(F)(F)F)c1)c1ncnn1-c1ccc(C(=O)N2CCOCC2c2ncno2)cn1 (stereo partly drawn) [Example I-98] | – | 100% | 100% | 100% | 100% | 100% | – | – | 90% | – | 90%
C[C@H](NC(=O)c1cc(Cl)cc(C(F)(F)F)c1)c1ncnn1-c1ccc(C(=O)N2CCCOCC2)cn1 [Example I-34] | 100% | 100% | 100% | 100% | – | – | – | – | – | – | –
C[C@H](NC(=O)c1cc(C(F)(F)F)cc(C(F)(F)F)c1)c1ncnn1-c1ccc(C(=O)N2CCOC(C)(C)C2)cn1 [Example I-14, N-[(1S)-1-(1-{5-[(2,2-dimethylmorpholin-4-yl)carbonyl]pyridin-2-yl}-1H-1,2,4-triazol-5-yl)ethyl]-3,5-bis(trifluoromethyl)benzamide] | 100% | 100% | 100% | 100% | 100% | 100% | 83% | – | 100% | 90% | 100%
